Laboratory results: the CheMixHub viscosity set

Assay: xn = mol fraction of the nth substance listed

CCCCCCCCCl + CCCCCCCCCC
298 K, 101.3 kPa
Settings	viscosity [mPa·s]
x2 = 0.1115	1.067
x2 = 0.2067	1.026
x2 = 0.3061	0.9966
x2 = 0.4041	0.969
x2 = 0.505	0.9433
x2 = 0.6124	0.9242
x2 = 0.707	0.8969
x2 = 0.797	0.8862
x2 = 0.8983	0.874

CCCCCl + CCCCO
viscosity [mPa·s], 101 kPa
Settings	x1 = 0.0749	x1 = 0.2028	x1 = 0.3021	x1 = 0.4122	x1 = 0.5016	x1 = 0.6048	x1 = 0.7044	x1 = 0.8062	x1 = 0.9064
298.15 K	2.121	1.523	–	0.9486	–	0.6572	0.5679	0.4955	0.4465
313.15 K	1.449	1.081	0.8789	0.7145	0.6192	0.5213	0.4589	0.4114	0.3742

CCOC(=O)[C@@H](O)[C@H](O)C(=O)OCC + CCCO
viscosity [mPa·s], 101 kPa
Settings	x1 = 0.1	x1 = 0.2	x1 = 0.2999	x1 = 0.3999	x1 = 0.5001	x1 = 0.5999	x1 = 0.7	x1 = 0.7996	x1 = 0.9
293.15 K	3.256	5.15	8.204	13.19	21	32.75	52.88	84.67	135.1
298.15 K	2.832	4.359	6.759	10.53	16.09	24.37	37.73	57.79	88.2
303.15 K	2.467	3.7	5.586	8.415	12.64	18.48	27.67	40.91	60.18
308.15 K	2.164	3.17	4.671	6.886	10.06	14.35	20.86	29.93	42.64
313.15 K	1.913	2.731	3.92	5.661	8.093	11.3	16.05	22.45	31.15
318.15 K	1.694	2.385	3.38	4.782	6.694	9.164	12.71	17.37	23.52
323.15 K	1.52	2.108	2.94	4.092	5.623	7.561	10.28	13.77	18.27

CC1CCCCC1 + C1COCCO1
303.15 K, 101.3 kPa
Settings	viscosity [mPa·s]
x2 = 0.1001	0.6334
x2 = 0.2013	0.6394
x2 = 0.296	0.653
x2 = 0.3948	0.6802
x2 = 0.5046	0.7196
x2 = 0.5993	0.7612
x2 = 0.7003	0.8213
x2 = 0.7956	0.8868
x2 = 0.896	0.9775

CCOC(=O)c1ccccc1 + CCCCCCCCCCCC
101 kPa
Settings	viscosity [mPa·s]
298.15 K, x2 = 0.031	1.896
298.15 K, x2 = 0.062	1.835
298.15 K, x2 = 0.0893	1.785
298.15 K, x2 = 0.1261	1.726
298.15 K, x2 = 0.168	1.663
298.15 K, x2 = 0.2378	1.58
298.15 K, x2 = 0.2782	1.532
298.15 K, x2 = 0.3577	1.462
298.15 K, x2 = 0.4064	1.427
298.15 K, x2 = 0.4557	1.396
298.15 K, x2 = 0.5044	1.371
298.15 K, x2 = 0.5519	1.351
298.15 K, x2 = 0.6714	1.331
298.15 K, x2 = 0.7194	1.324
298.15 K, x2 = 0.7886	1.32
298.15 K, x2 = 0.8626	1.325
298.15 K, x2 = 0.9296	1.335
308.15 K, x2 = 0.0462	1.569
308.15 K, x2 = 0.0741	1.532
308.15 K, x2 = 0.1171	1.477
308.15 K, x2 = 0.1439	1.445
308.15 K, x2 = 0.1806	1.405
308.15 K, x2 = 0.2481	1.342
308.15 K, x2 = 0.2629	1.329
308.15 K, x2 = 0.295	1.303
308.15 K, x2 = 0.3388	1.272
308.15 K, x2 = 0.3769	1.249
308.15 K, x2 = 0.4331	1.218
308.15 K, x2 = 0.4765	1.198
308.15 K, x2 = 0.527	1.178
308.15 K, x2 = 0.5759	1.163
308.15 K, x2 = 0.6373	1.149
308.15 K, x2 = 0.7278	1.138
308.15 K, x2 = 0.7527	1.136
308.15 K, x2 = 0.8209	1.134
308.15 K, x2 = 0.9374	1.142
318.15 K, x2 = 0.0278	1.314
318.15 K, x2 = 0.0571	1.276
318.15 K, x2 = 0.0872	1.241
318.15 K, x2 = 0.1222	1.203
318.15 K, x2 = 0.155	1.173
318.15 K, x2 = 0.1942	1.14
318.15 K, x2 = 0.2296	1.113
318.15 K, x2 = 0.2726	1.084
318.15 K, x2 = 0.3115	1.061
318.15 K, x2 = 0.3575	1.037
318.15 K, x2 = 0.3995	1.019
318.15 K, x2 = 0.4522	0.999
318.15 K, x2 = 0.4995	0.984
318.15 K, x2 = 0.5564	0.97
318.15 K, x2 = 0.6085	0.961
318.15 K, x2 = 0.6725	0.954
318.15 K, x2 = 0.7324	0.95
318.15 K, x2 = 0.7851	0.948
318.15 K, x2 = 0.868	0.953

CC(C)O + CCCCCCC
viscosity [mPa·s], 101 kPa
Settings	x2 = 0.1003	x2 = 0.2009	x2 = 0.3009	x2 = 0.398	x2 = 0.5002	x2 = 0.5961	x2 = 0.6981	x2 = 0.8014	x2 = 0.9084
293.15 K	1.596	1.178	0.9242	0.7437	0.6223	0.5479	0.493	0.4607	0.436
298.15 K	1.413	1.044	0.8165	0.6851	0.5866	0.5025	0.4623	0.4268	0.4025
303.15 K	1.23	0.927	0.7388	0.62	0.5333	0.4679	0.4351	0.4137	0.3897
308.15 K	1.091	0.8401	0.6728	0.577	0.4915	0.4441	0.4083	0.3805	0.3637

CCOC(=O)c1ccccc1 + CCOC(C)=O
298.15 K, 101 kPa
Settings	viscosity [mPa·s]
x2 = 0.1216	1.704
x2 = 0.2088	1.514
x2 = 0.3131	1.292
x2 = 0.3973	1.157
x2 = 0.5044	0.9851
x2 = 0.5998	0.8478
x2 = 0.6989	0.7247
x2 = 0.7997	0.6178
x2 = 0.8992	0.5188

Cc1cccc([N+](=O)[O-])c1 + CC1CCCCC1
303.15 K, 101.33 kPa
Settings	viscosity [mPa·s]
x1 = 0.202	0.77
x1 = 0.4	0.89
x1 = 0.6	1.09
x1 = 0.799	1.43

CCCC[N+]1(C)CCCC1.N#C[S-] + O
Settings	viscosity [mPa·s]
298.15 K, 101 kPa, x1 = 0.9147	91.83
